# Reference: patent US9724352B2, “Pyrrolo[2,1-F[1,2,4]triazine compounds, preparation methods and applications thereof” (Shanghai Institute of Materia Medica, Chinese Academy of …, priority 2012, dated 2017)
# Experiments:
# [1] = system: human rhabdomyosarcoma Rh30 cells; experiment: Proliferation of Rh30 cells (sulforhodamine B); assay type: cell-based; conditions: for IC50: Homo sapiens, Rh30, 72 h, read-out: IC50 against proliferation of Rh30 cells
# Experimental: Rh30 cells were seeded in a 96-well plate at 3000 cells/well. After the cells adhered, tested compounds at concentration of 10, 3, 1, 0.3, or 0.1 μM were added, and incubated for 72 h. The culture media were discarded and cells were fixed with trichloroacetic acid. After washed with distilled water for five times and dried, sulfonylrhodamine B was added. After washed with 1% glacial acetic acid for five times and dried, trihydroxymethylaminomethane buffer was added. OD value was measured by using a microplate reader at a wavelength of 560 nm.
# PI3Kα = PI3Kα (Homo sapiens (Human), UniProt P42336); experiment: Inhibition on PI3K kinase activity (Kinase-Glo Plus luminescent assay); assay type: biochemical; conditions: 2 μM ATP, 1 hour at room temperature
# Experimental: The activity of purified kinase was detected with Kinase-Glo® Plus kinase luminescent assay by measuring the amount of the remaining […] in the solution after the kinase reaction was completed. […] After reaction was performed for 1 hour at room temperature, 10 μL of Kinase Glo-Plus mixture was added and incubated for 1 hour to quench the reaction.
# [2] = system: human esophagus cancer KYSE 410 xenograft; experiment: Growth of KYSE 410 xenograft subcutaneously transplanted in nude mouse; assay type: in vivo; conditions: for Relative tumor proliferation rate T/C: 50 mg/kg p.o. once every day
# Experimental: Well-developed tumors in nude mice were cut into 1.5 mm3 fragments and transplanted s.c. into the right flank of nude mice under sterile conditions. The diameters of subcutaneously transplanted tumours in nude mice were measured with a vernier calipe. When the tumour reached a volume 170 mm3, the mice were randomly assigned into two treatment groups: CYH33 50 mg/kg group or BYL-719 50 mg/kg group. Control groups were given the same amount of normal saline, and treatment groups received tested compounds (p.o). Compounds were administered orally once every day for 3 weeks. Evaluation index of antitumor activity was relative tumor proliferation rate T/C (%), the calculation formula of which was as follows: T/C (%)=(TRTV/CRTV)×100%, TRTV:RTV of treatment group; CRTV:RTV of negative control group.
# KYSE410 = experiment: Proliferation of human esophagus cancer cells; assay type: cell-based
# Source text: (§1) Compounds BYL719 (shown below), CYH33 (compound I-33) and I-27 were selected to test their activity on the proliferation of 11 species of human esophagus cancer cells.
# (§2) The results reported in FIG. 3 were the average GI50 value and SD value of three experiments. The results were arranged according to the GI50 value of CYH33.
# KYSE140 = experiment: Proliferation of human esophagus cancer cells; assay type: cell-based
# Source text: as §1, §2
# KYSE450 = experiment: Proliferation of human esophagus cancer cells; assay type: cell-based
# Source text: as §1, §2
# KYSE510 = experiment: Proliferation of human esophagus cancer cells; assay type: cell-based
# Source text: as §1, §2
# COLO680N = experiment: Proliferation of human esophagus cancer cells; assay type: cell-based; conditions: COLO-680N
# Source text: as §1, §2
# KYSE2 = experiment: Proliferation of human esophagus cancer cells; assay type: cell-based
# Source text: as §1, §2
# KYSE180 = experiment: Proliferation of human esophagus cancer cells; assay type: cell-based
# Source text: as §1, §2
# Detroit 562 = experiment: Proliferation of human esophagus cancer cells; assay type: cell-based
# Source text: as §1, §2
# KYSE70 = experiment: Proliferation of human esophagus cancer cells; assay type: cell-based
# Source text: as §1, §2
# KYSE30 = experiment: Proliferation of human esophagus cancer cells; assay type: cell-based
# Source text: as §1, §2
# KYSE150 = experiment: Proliferation of human esophagus cancer cells; assay type: cell-based
# Source text: as §1, §2
# [3] = KYSE-410, KYSE410, 1st experiment
# [4] = KYSE-410, KYSE410, 2nd experiment
# [5] = KYSE-410, KYSE410, 3rd experiment
# [6] = KYSE-410, KYSE410, mean of three experiments
# [7] = KYSE-140, KYSE140, 1st experiment
# [8] = KYSE-140, KYSE140, 2nd experiment
# [9] = KYSE-140, KYSE140, 3rd experiment
# [10] = KYSE-140, KYSE140, mean of three experiments
# [11] = KYSE-450, KYSE450, 1st experiment
# [12] = KYSE-450, KYSE450, 2nd experiment
# [13] = KYSE-450, KYSE450, 3rd experiment
# [14] = KYSE-450, KYSE450, mean of three experiments
# [15] = KYSE-510, KYSE510, 1st experiment
# [16] = KYSE-510, KYSE510, 2nd experiment
# [17] = KYSE-510, KYSE510, 3rd experiment
# [18] = KYSE-510, KYSE510, mean of three experiments
# [19] = KYSE2, mean of three experiments
# [20] = KYSE-180, KYSE180, 1st experiment
# [21] = KYSE-180, KYSE180, 2nd experiment
# [22] = KYSE-180, KYSE180, 3rd experiment
# [23] = KYSE-180, KYSE180, mean of three experiments
# [24] = Detroit 562, Detroit 562, 1st experiment
# [25] = Detroit 562, Detroit 562, 2nd experiment
# [26] = Detroit 562, Detroit 562, 3rd experiment
# [27] = Detroit 562, Detroit 562, mean of three experiments
# [28] = KYSE-70, KYSE70, 1st experiment
# [29] = KYSE-70, KYSE70, 2nd experiment
# [30] = KYSE-70, KYSE70, 3rd experiment
# [31] = KYSE-70, KYSE70, mean of three experiments
# [32] = KYSE-30, KYSE30, 1st experiment
# [33] = KYSE-30, KYSE30, 2nd experiment
# [34] = KYSE-30, KYSE30, 3rd experiment
# [35] = KYSE-30, KYSE30, mean of three experiments
# [36] = KYSE-150, KYSE150, 1st experiment
# [37] = KYSE-150, KYSE150, 2nd experiment
# [38] = KYSE-150, KYSE150, 3rd experiment
# [39] = KYSE-150, KYSE150, mean of three experiments
# Chain of PI3Kα (P42336 whole entry): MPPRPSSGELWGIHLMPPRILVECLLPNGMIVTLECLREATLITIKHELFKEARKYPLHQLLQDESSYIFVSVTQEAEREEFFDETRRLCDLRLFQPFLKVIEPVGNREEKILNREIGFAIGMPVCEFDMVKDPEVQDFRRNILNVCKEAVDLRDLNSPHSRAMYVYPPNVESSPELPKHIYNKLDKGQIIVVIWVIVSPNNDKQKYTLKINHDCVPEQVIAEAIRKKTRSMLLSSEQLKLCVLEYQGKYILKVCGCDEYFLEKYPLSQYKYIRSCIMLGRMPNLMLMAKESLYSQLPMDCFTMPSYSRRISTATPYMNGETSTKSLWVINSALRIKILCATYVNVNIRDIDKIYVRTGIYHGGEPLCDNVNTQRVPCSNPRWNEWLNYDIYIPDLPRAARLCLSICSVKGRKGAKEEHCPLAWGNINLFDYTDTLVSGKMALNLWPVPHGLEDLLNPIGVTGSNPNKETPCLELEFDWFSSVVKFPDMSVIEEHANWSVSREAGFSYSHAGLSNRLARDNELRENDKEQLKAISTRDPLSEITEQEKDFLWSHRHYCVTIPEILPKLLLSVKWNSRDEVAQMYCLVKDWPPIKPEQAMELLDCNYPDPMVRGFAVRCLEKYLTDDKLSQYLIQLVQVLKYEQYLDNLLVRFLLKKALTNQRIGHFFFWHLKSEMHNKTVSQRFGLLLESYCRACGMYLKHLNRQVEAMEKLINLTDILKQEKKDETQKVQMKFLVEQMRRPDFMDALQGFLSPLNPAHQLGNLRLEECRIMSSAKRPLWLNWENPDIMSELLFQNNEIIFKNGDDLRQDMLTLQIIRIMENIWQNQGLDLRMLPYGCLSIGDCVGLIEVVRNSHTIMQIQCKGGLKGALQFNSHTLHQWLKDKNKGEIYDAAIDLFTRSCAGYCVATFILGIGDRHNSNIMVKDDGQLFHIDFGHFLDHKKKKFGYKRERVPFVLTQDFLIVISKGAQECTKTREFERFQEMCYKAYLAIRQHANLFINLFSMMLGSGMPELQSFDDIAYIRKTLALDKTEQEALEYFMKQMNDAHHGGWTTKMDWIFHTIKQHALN
# Chain of PI3Kα (P27986 whole entry partner): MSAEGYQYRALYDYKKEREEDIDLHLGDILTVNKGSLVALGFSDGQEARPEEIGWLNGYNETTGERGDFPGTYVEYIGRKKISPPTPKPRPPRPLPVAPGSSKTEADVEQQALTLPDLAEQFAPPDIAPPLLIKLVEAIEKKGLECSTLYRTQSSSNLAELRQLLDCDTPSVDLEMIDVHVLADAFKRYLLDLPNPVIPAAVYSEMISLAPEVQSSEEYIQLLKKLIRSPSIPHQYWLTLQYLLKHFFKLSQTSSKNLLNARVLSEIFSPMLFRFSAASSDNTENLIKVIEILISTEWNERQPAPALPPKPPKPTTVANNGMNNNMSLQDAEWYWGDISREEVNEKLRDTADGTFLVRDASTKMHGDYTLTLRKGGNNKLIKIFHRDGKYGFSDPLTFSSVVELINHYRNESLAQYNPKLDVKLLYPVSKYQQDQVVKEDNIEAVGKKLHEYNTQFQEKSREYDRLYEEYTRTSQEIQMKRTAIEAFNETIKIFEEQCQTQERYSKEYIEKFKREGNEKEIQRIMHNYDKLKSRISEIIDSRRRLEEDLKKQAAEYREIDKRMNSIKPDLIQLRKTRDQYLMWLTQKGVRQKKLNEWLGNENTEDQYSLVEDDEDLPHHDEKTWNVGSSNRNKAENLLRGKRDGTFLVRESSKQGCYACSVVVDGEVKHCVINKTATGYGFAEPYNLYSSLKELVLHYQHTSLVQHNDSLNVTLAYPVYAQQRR
structure (smiles),measurement,setting,value
"COC(=O)Nc1cc(C(F)(F)F)c(-c2nc(N3CCOC[C@@H]3C)c3cc(CN4CCN(S(C)(=O)=O)CC4)cn3n2)cn1 [Compound I-35, (S)-methyl (5-(4-(3-methylmorpholino)-6-((4-(methylsulfonyl)piperazin-1-yl)methyl)pyrrolo[2,1-f][1,2,4]triazin-2-yl)-4-(trifluoromethyl)pyridin-2-yl)carbamate]",IC50,[1],470 nM
same,IC50,PI3Kα,5.67 nM
"CCOC(=O)Nc1cc(C(F)(F)F)c(-c2nc(N3CCOCC3)c3cc(CN4CCN(S(C)(=O)=O)CC4)cn3n2)cn1 [Compound I-32, Ethyl (5-(6-((4-(methylsulfonyl)piperazin-1-yl)methyl)-4-morpholinopyrrolo[2,1-f-][1,2,4]triazin-2-yl)-4-(trifluoromethyl)pyridin-2-yl)carbamate]",IC50,PI3Kα,7.15 nM
"CN1CCN(C(=O)c2ccc(NC(=O)Nc3ccc(-c4nc(N5CCOCC5)c5cc(CN6CCN(S(C)(=O)=O)CC6)cn5n4)cc3)cc2)CC1 [Compound I-22, 1-(4-(4-methylpiperazine-carbonyl)phenyl)-3-(4-(6-((4-(methylsulfonyl)piperazin-1-yl)methy 1)-4-morpholinopyrrolo[2,1-f][1,2,4]triazin-2-yl)phenyl)urea]",IC50,[1],540 nM
same,IC50,PI3Kα,9.59 nM
"Cc1nc(NC(=O)N2CCC[C@H]2C(N)=O)sc1-c1ccnc(C(C)(C)C(F)(F)F)c1 [BYL719, reference compound]",growth of KYSE 410 xenograft (in words),[2]; 50 mg/kg p.o. every day for 3 weeks,significantly slowed down
same,Relative tumor proliferation rate T/C,[2]; d0,100.00%
same,Relative tumor proliferation rate T/C,[2]; d3,56.95%
same,Relative tumor proliferation rate T/C,[2]; d7,31.23%
same,Relative tumor proliferation rate T/C,[2]; d10,24.77%
same,Relative tumor proliferation rate T/C,[2]; d14,22.12%
same,Relative tumor proliferation rate T/C,[2]; d17,19.32%
same,Relative tumor proliferation rate T/C,[2]; d21,15.37%
same,GI50,KYSE410; [3],1890 nM
same,GI50,KYSE410; [4],816 nM
same,GI50,KYSE410; [5],874 nM
same,GI50,KYSE410; [6],1190 nM
same,GI50,KYSE140; [7],2450 nM
same,GI50,KYSE140; [8],3610 nM
same,GI50,KYSE140; [9],2740 nM
same,GI50,KYSE140; [10],2930 nM
same,GI50,KYSE450; [11],8590 nM
same,GI50,KYSE450; [12],10000 nM
same,GI50,KYSE450; [13],8800 nM
same,GI50,KYSE450; [14],9130 nM
same,GI50,KYSE510; [15],1530 nM
same,GI50,KYSE510; [16],835 nM
same,GI50,KYSE510; [17],1030 nM
same,GI50,KYSE510; [18],1130 nM
same,GI50,COLO680N; 1st experiment,6120 nM
same,GI50,COLO680N; 2nd experiment,6050 nM
same,GI50,COLO680N; 3rd experiment,6100 nM
same,GI50,COLO680N; mean of three experiments,6090 nM
same,GI50,"KYSE2; KYSE2, 1st experiment",1440 nM
same,GI50,"KYSE2; KYSE2, 2nd experiment",911 nM
same,GI50,"KYSE2; KYSE2, 3rd experiment",1870 nM
same,GI50,KYSE2; [19],1410 nM
same,GI50,KYSE180; [20],354 nM
same,GI50,KYSE180; [21],740 nM
same,GI50,KYSE180; [22],553 nM
same,GI50,KYSE180; [23],549 nM
same,GI50,Detroit 562; [24],1970 nM
same,GI50,Detroit 562; [25],2300 nM
same,GI50,Detroit 562; [26],2380 nM
same,GI50,Detroit 562; [27],2220 nM
same,GI50,KYSE70; [28],452 nM
same,GI50,KYSE70; [29],450 nM
same,GI50,KYSE70; [30],478 nM
same,GI50,KYSE70; [31],460 nM
same,GI50,KYSE30; [32],10000 nM
same,GI50,KYSE30; [33],6830 nM
same,GI50,KYSE30; [34],10000 nM
same,GI50,KYSE30; [35],8940 nM
same,GI50,KYSE150; [36],1640 nM
same,GI50,KYSE150; [37],2110 nM
same,GI50,KYSE150; [38],1670 nM
same,GI50,KYSE150; [39],1810 nM
"CS(=O)(=O)N1CCN(Cc2cc3c(N4CCOCC4)nc(-c4cnc(N)cc4C(F)(F)F)nn3c2)CC1 [Compound I-27, 5-(6-((4-(methylsulfonyl)piperazin-1-yl)methyl)-4-morpholinopyrrolo [2,1-f][1,2,4]triazin-2-yl)-4-(trifluoromethyl)pyridin-2-amine]",IC50,[1],730 nM
same,IC50,PI3Kα,8.37 nM
same,GI50,KYSE410; [3],468 nM
same,GI50,KYSE410; [4],959 nM
same,GI50,KYSE410; [5],229 nM
same,GI50,KYSE410; [6],552 nM
same,GI50,KYSE140; [7],898 nM
same,GI50,KYSE140; [8],638 nM
same,GI50,KYSE140; [9],792 nM
same,GI50,KYSE140; [10],776 nM
same,GI50,KYSE450; [11],1230 nM
same,GI50,KYSE450; [12],1000 nM
same,GI50,KYSE450; [13],932 nM
same,GI50,KYSE450; [14],1050 nM
same,GI50,KYSE510; [15],247 nM
same,GI50,KYSE510; [16],390 nM
same,GI50,KYSE510; [17],204 nM
same,GI50,KYSE510; [18],280 nM
same,GI50,COLO680N; 1st experiment,959 nM
same,GI50,COLO680N; 2nd experiment,915 nM
same,GI50,COLO680N; 3rd experiment,917 nM
same,GI50,COLO680N; mean of three experiments,930 nM
same,GI50,"KYSE2; KYSE2, 1st experiment",255 nM
same,GI50,"KYSE2; KYSE2, 2nd experiment",165 nM
same,GI50,"KYSE2; KYSE2, 3rd experiment",310 nM
same,GI50,KYSE2; [19],243 nM
same,GI50,KYSE180; [20],100 nM
same,GI50,KYSE180; [21],169 nM
same,GI50,KYSE180; [22],77 nM
same,GI50,KYSE180; [23],115 nM
same,GI50,Detroit 562; [24],580 nM
same,GI50,Detroit 562; [25],527 nM
same,GI50,Detroit 562; [26],607 nM
same,GI50,Detroit 562; [27],571 nM
same,GI50,KYSE70; [28],109 nM
same,GI50,KYSE70; [29],59 nM
same,GI50,KYSE70; [30],112 nM
same,GI50,KYSE70; [31],93 nM
same,GI50,KYSE30; [32],2350 nM
same,GI50,KYSE30; [33],1100 nM
same,GI50,KYSE30; [34],1070 nM
same,GI50,KYSE30; [35],1510 nM
same,GI50,KYSE150; [36],202 nM
same,GI50,KYSE150; [37],276 nM
same,GI50,KYSE150; [38],150 nM
same,GI50,KYSE150; [39],209 nM
"CS(=O)(=O)N1CCN(Cc2cc3c(N4CCOCC4)nc(-c4cnc(NC(=O)Nc5ccc(F)cc5)cc4C(F)(F)F)nn3c2)CC1 [Compound I-28, 1-(4-fluorophenyl)-3-(5-(6-((4-(methylsulfonyl)piperazin-1-yl)methyl)-4-morpholinopyrrolo[2,1-f][1,2,4]triazin-2-yl)-4-(trifluoromethyl)pyridin-2-yl)urea]",inhibitory activity on Rh30 cell proliferation (in words),[1]; 72 h,tens of nanomolar
same,IC50,[1],74 nM
same,IC50,PI3Kα,9.3 nM
